Consider six molecules from article PMC3380929 (PLoS Pathogens, 2012).

“Also recorded” adds a separate entry of the source. Positions of bridges follow the written chain, without caps; N, C: chain ends. Residues, ends and D or L forms follow the SMILES beside them.

Series [1] addresses PfAMA1 CAMP (residues 97-442), P. pastoris expression (Plasmodium falciparum (strain CAMP)) (UniProt P50489). The experiment in a line: SPR; Biacore 2000; PfAMA1 (3D7, CAMP, HB3, FVO) amine-coupled on CM5 at pH 4.5; PfRON2sp peptides injected; 25°C, PBS with 0.005% Tween 20, 5 µL/min; apparent KD from a steady-state model, Req extrapolated.
Series [2] addresses PfAMA1 HB3 (residues 97-442), P. pastoris expression (Plasmodium falciparum (strain HB3)). The series is described as above.
Series [3] concerns the target PfAMA1 3D7 (residues 97-442), P. pastoris expression (Plasmodium falciparum (strain 3D7)) (UniProt Q7KQK5). The description is as above.
The target of series [4] is PfAMA1 FVO (residues 25-545, no tags) (Plasmodium falciparum (strain FVO)). The description is as above.
Series [5] addresses PfAMA1 from strain 3D7 (Plasmodium falciparum, UniProt Q7KQK5). The experiment in a line: SPR binding to immobilized recombinant PfAMA1 3D7. Also noted: species or system P. falciparum (strain 3D7). The note with it: ratio PfRON2sp1 vs PfRON2sp2, SPR. The source says: (§1) (ii) P. pastoris expression: Synthetic genes were optimized for PfAMA1 coding of residues 97–442, from strains 3D7 (Genbank accession number U33274), CAMP (accession number M34552) and HB3 (accession number U33277). Potential N-glycosylation sites were mutated and genes were cloned EcoRI-KpnI in the pPicZalpha A vector (Invitrogen), resulting in an 11-residues sequence extension followed by myc-epitope and hexa-His tags at the C-terminus), expressed in P. pastoris, and purified as described. Yield after purification was approximately 20 mg per L of culture. PfAMA1 FVO (residues 25–545, no tags, accession number AJ277646) was produced as described before. The DiCo3 protein was modified compared to the published protein [23]; it includes the PfAMA1 FVO prodomain (amino acids 25–96) and one additional mutation to minimize proteolytic cleavage Lys376–>Arg (B. Faber, unpublished results). The PfAMA1 3D7mut (Ile225–>Asn, residues 25–545, no tags) mutant was generated by site-directed mutagenesis (Genscript) and produced in P. pastoris in a similar fashion to the native protein [29].
(§2) A 39-residue peptide corresponding to residues 2021 to 2059 of PfRON2 (PfRON2sp1) was synthesized by Kinexus (Vancouver, Canada) and disulfide cyclized. […]

Series [6] relates to P. falciparum 3D7. Briefly: Red blood cell invasion assay, P. falciparum 3D7. Type of series: cell-based, P. falciparum (strain 3D7). The conditions noted are these: peptides 0.2 to 20 µM, parasitemia of IRBC 16 hours post-invasion, N = 3. The method, then: (§3) The P. falciparum cell cultures and the invasion assays were performed as described previously. Briefly, highly synchronized P. falciparum 3D7 and HB3 schizonts (1.5% hematocrit, 1.5% parasitemia) were incubated with R1 or PfRON2sp1 peptides. Blood smears were collected 16 hours post-invasion and used for ring-stage parasites counting. The results presented are representative of three independent experiments, each performed in triplicate.

Series [7] relates to PfAMA1 from 3D7, CAMP, FVO and HB3. Briefly: SPR binding compared across PfAMA1 strains. Also noted: species or system P. falciparum.
Text: as §1
A 39-residue peptide corresponding to residues 2021 to 2059 of PfRON2 (PfRON2sp1) was synthesized by Kinexus (Vancouver, Canada) and disulfide cyclized. Lyophilized PfRON2sp1 was solubilized in 100% DMSO and subsequently diluted in HBS (20 mM HEPES pH 7.5, 150 mM NaCl) for use in co-crystallization and functional studies. Peptides PfRON2sp2 (residues 2027 to 2054) and R1 were synthesized by PolyPeptide (Strasbourg, France) and solubilized in 3.5% DMSO for subsequent use.
SPR measurements were made with a Biacore 2000 instrument (Biacore AB). AMA1 proteins diluted in 10 mM sodium acetate pH 4.5 for 3D7, CAMP, HB3 and FVO strains, or pH 4.0 for 3D7mut and Dico3, were covalently immobilized by an amine-coupling procedure on CM5 sensor chips (GE Healthcare). The reference flow cell was prepared by the same procedure in absence of protein. […]
For orientation: In SPR one partner is held on a chip, and binding of the other changes the refractive index at the surface.

In series [8] the test system is P. falciparum 3D7 or HB3. The experiment in a line: Red blood cell invasion assay, cross-strain (3D7 and HB3). The conditions noted are these: for Cross-strain reactivity of invasion inhibition: 3D7 or HB3, peptides 0.2 to 20 µM, 16 hours post-invasion, N = 3; for Inhibition of erythrocyte invasion: P. falciparum merozoites, in words. Type of series: cell-based, P. falciparum (strains 3D7 and HB3). The method, then: as §3

The target in series [9] is PfAMA1 from strain CAMP. Briefly: SPR binding to immobilized recombinant PfAMA1 CAMP. The note with it: SPR Biacore 2000, AMA1 immobilized on CM5, 25°C, PBS and 0.005% Tween 20, steady-state model (Req extrapolated), mean ± SD, at least three independent experiments, read-out: Apparent equilibrium dissociation constant KD. Also noted: species or system P. falciparum (strain CAMP).
Text: as §1, §2

The target of series [10] is PfAMA1 3D7 (Plasmodium falciparum, UniProt Q7KQK5). Briefly: Isothermal titration calorimetry of R1 with PfAMA1 3D7. Type of series: binding, P. falciparum (strain 3D7). The conditions noted are these: ITC200, PfAMA1 3D7 (P. pastoris) 0.6 µM, R1 55 µM, PBS, 25°C, 1∶1 interaction model. The method, then:
ITC measurements were made using a ITC200 calorimeter (MicroCal). PfAMA1 3D7 (P. pastoris) and peptide R1 were diluted in PBS to final concentrations of 0.6 µM and 55 µM, respectively. PfAMA1 3D7 (initial volume 200 µL) was titrated at 25°C by consecutive injections of the peptide R1 (2 µL aliquots at 3 min intervals). Raw data were normalized and corrected for the heat of dilution of R1 in PBS. Binding stoichiometry was determined by fitting the final data to a 1∶1 interaction model using the Origin7 software (OriginLab).
(Isothermal titration calorimetry measures the heat released or taken up as one component is titrated into another.)

Series [11] deals with the molecule itself. Briefly: crystal structure.

Consider “PfRON2sp2 (PfRON2 residues 2027-2055) (peptide)”, for which the Kd in series [1] is 165 nM; in series [2] it was 680 nM; in series [3] it was 520 nM; in [4], 80 nM.

Consider `CC[C@H](C)[C@H](NC(=O)[C@H](CC(=O)O)NC(=O)[C@H](CCCCN)NC(=O)[C@H](C)NC(=O)[C@H](CCC(N)=O)NC(=O)[C@H](CCC(N)=O)NC(=O)[C@@H](NC(=O)[C@@H](NC(=O)[C@@H](N)CC(=O)O)[C@@H](C)CC)[C@@H](C)O)C(=O)NCC(=O)N[C@@H](C)C(=O)NCC(=O)N1CCC[C@H]1C(=O)N[C@H](C(=O)N[C@@H](C)C(=O)N[C@@H](CO)C(=O)N[C@H]1CSSC[C@@H](C(=O)N[C@@H](CC(C)C)C(=O)N[C@@H](CC(N)=O)C(=O)N[C@@H](CO)C(=O)N[C@H](C(=O)N[C@H](C(=O)N[C@@H](CC(N)=O)C(=O)N[C@H](C(=O)N[C@@H](C)C(=O)N[C@@H](CC(C)C)C(=O)N[C@@H](CO)C(=O)O)[C@@H](C)O)C(C)C)C(C)C)NC(=O)[C@H]([C@@H](C)CC)NC(=O)[C@H](CCC(N)=O)NC(=O)[C@H](CCC(N)=O)NC(=O)[C@@H]2CCCN2C(=O)[C@@H]2CCCN2C(=O)[C@H](CO)NC(=O)[C@H](CCSC)NC(=O)[C@H](CCCNC(=N)N)NC(=O)[C@H]([C@@H](C)O)NC(=O)[C@H]([C@@H](C)O)NC(=O)[C@H](Cc2ccccc2)NC1=O)C(C)C` [PfRON2sp1], for which the “Affinity of PfAMA1 from 3D7 for PfRON2sp1 higher than for PfRON2sp2” value in [5] was found to be 25 fold. Besides, the “Inhibition of red blood cell invasion relative to R1 peptide” value in series [6] is on record as “higher capacity to inhibit red cell invasion; also recorded: higher inhibitory efficiency”. In series [7] (all the PfAMA1 proteins tested, SPR, compared with R1), the “Affinity for PfAMA1 relative to R1 peptide” value is “higher affinity than for R1 peptide”. Further, the “Affinity to PfAMA1” value in [7] (in words) was “very high affinity to PfAMA1”. Further, in [8], the “Cross-strain reactivity of invasion inhibition” value is recorded as “cross-strain inhibition of invasion; also recorded: cross-strain reactivity; also recorded: not strain specific” and the “Inhibition of erythrocyte invasion” value was “very efficient at inhibiting invasion”. Further, in series [8] (listed as PfRON2 peptide), the “Cross-strain reactivity of invasion inhibition” value was “strong inhibitory potency is not affected by AMA1 polymorphisms” and the “Inhibition of erythrocyte invasion” value is on record as “inhibits erythrocyte invasion”. For the same molecule, the Kd in series [9] is 14.6 ± 3.8 nM.

`CC[C@H](C)[C@H](NC(=O)[C@H](CC(=O)O)NC(=O)[C@@H](N)CCCCN)C(=O)NCC(=O)N[C@@H](C)C(=O)NCC(=O)N1CCC[C@H]1C(=O)N[C@H](C(=O)N[C@@H](C)C(=O)N[C@@H](CO)C(=O)N[C@H]1CSSC[C@@H](C(=O)N[C@@H](CC(C)C)C(=O)N[C@@H](CC(N)=O)C(=O)N[C@@H](CO)C(=O)N[C@H](C(=O)N[C@H](C(=O)N[C@@H](CC(N)=O)C(=O)O)C(C)C)C(C)C)NC(=O)[C@H]([C@@H](C)CC)NC(=O)[C@H](CCC(N)=O)NC(=O)[C@H](CCC(N)=O)NC(=O)[C@@H]2CCCN2C(=O)[C@@H]2CCCN2C(=O)[C@H](CO)NC(=O)[C@H](CCSC)NC(=O)[C@H](CCCNC(=N)N)NC(=O)[C@H]([C@@H](C)O)NC(=O)[C@H]([C@@H](C)O)NC(=O)[C@H](Cc2ccccc2)NC1=O)C(C)C` [PfRON2sp2] (H-KDIGAGPVASCFTTRMSPPQQICLNSVVN-OH; disulfide 11-23; N-terminus and C-terminus assumed): the “Difference in affinity of PfAMA1 3D7 and CAMP homologs” value in series [7] (3D7 vs CAMP, SPR) is recorded as “no significant difference in the affinity”. Further, in [9], the Kd is 165 ± 42 nM.

The molecule `CC[C@H](C)[C@H](NC(=O)[C@H](Cc1cnc[nH]1)NC(=O)[C@H](CCSC)NC(=O)[C@H](CCCNC(=N)N)NC(=O)[C@H](CO)NC(=O)CNC(=O)[C@H](Cc1ccccc1)NC(=O)[C@H](CCCCN)NC(=O)[C@H](CO)NC(=O)[C@H](Cc1ccccc1)NC(=O)[C@H](CC(C)C)NC(=O)[C@@H]1CCCN1C(=O)[C@H](CC(C)C)NC(=O)[C@H](Cc1ccccc1)NC(=O)[C@H](CCC(=O)O)NC(=O)[C@H](C)NC(=O)[C@H](Cc1ccccc1)NC(=O)[C@@H](N)C(C)C)C(=O)N[C@@H](CC(C)C)C(=O)N[C@@H](CCCCN)C(=O)O` [R1] (H-VFAEFLPLFSKFGSRMHILK-OH) had a Kd in series [10] of 145 nM.

With “PfRON2sp1 (PfRON2 residues 2021-2059) (peptide)”, the Kd in [1] is 14.6 nM; in series [2], 18.3 nM; in series [3], 20.3 nM; in series [4], 9.2 nM.

Regarding VFAEFLPLFSKFGSRMHILK (source: synthetic peptide (PolyPeptide)) [invasion-inhibitory peptide R1], the binding result in series [11] is on record as “binds”.
